Test results from US11053213B2, “Pharmaceutical compounds” (ALMAC DISCOVERY LIMITED, priority 2016, dated 2021).
pIC50: −log10 of the molar value.

Target: USP19 (Homo sapiens (Human), UniProt O94966)
Assay: USP19 activity assay (fluorescence polarisation, Ubiquitin-Lys-TAMRA substrate)
Format: biochemical
Settings: full-length USP19 2.5 nM, 30 min pre-incubation, Ub substrate 500 nM; average of at least two duplicate experiments

Sequence of USP19 (O94966 whole entry): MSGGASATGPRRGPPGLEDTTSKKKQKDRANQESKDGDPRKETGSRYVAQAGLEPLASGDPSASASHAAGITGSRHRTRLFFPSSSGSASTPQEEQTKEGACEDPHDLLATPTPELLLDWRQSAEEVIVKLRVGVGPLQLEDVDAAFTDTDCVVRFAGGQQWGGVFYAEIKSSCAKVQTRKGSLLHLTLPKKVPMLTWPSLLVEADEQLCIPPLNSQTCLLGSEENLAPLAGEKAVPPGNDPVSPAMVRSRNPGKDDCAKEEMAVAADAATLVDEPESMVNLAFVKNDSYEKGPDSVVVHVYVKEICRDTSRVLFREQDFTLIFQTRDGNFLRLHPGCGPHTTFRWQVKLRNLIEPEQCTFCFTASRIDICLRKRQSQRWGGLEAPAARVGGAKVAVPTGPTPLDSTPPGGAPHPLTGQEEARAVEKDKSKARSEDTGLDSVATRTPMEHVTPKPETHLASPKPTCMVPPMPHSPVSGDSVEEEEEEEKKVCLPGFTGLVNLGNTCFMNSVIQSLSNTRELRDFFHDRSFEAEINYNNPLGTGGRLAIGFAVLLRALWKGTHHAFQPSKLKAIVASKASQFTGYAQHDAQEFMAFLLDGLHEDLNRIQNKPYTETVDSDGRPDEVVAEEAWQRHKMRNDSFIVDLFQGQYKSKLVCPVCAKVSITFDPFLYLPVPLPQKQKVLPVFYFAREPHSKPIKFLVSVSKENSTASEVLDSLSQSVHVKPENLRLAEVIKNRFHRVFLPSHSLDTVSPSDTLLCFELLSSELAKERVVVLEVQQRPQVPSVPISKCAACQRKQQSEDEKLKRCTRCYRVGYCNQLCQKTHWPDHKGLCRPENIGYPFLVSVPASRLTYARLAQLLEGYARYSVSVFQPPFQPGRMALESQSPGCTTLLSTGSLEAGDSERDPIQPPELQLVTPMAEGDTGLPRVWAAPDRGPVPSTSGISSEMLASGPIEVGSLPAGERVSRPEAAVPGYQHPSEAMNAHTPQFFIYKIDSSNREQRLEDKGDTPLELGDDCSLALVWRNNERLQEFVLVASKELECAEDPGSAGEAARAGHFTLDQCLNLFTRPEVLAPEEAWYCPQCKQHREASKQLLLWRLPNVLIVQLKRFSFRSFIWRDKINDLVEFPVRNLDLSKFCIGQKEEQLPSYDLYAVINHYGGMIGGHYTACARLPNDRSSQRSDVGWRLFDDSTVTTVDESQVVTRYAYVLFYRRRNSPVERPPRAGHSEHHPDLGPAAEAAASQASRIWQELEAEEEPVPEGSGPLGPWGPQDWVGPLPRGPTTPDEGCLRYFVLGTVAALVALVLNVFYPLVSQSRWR

Row | Structure (SMILES) | pIC50
1 | O=C(c1cn(C[C@]2(O)CCN(C(=O)C(CC(F)(F)F)CC(F)(F)F)CC23CCCC3)c(=O)cc1-c1ccccc1)N1CCNCC1 [Example 219, (S)-1-((10-Hydroxy-7-(4,4,4-trifluoro-2-(2,2,2-trifluoroethyl)butanoyl)-7-azaspiro[4.5]decan-10-yl)methyl)-4-phenyl-5-(piperazine-1-carbonyl)pyridin-2(1H)-one] | 5.30 to 6.30
2 | C[C@H](CC(=O)N1CCC(O)(Cn2cc(C(=O)N3CCNCC3)c(-c3ccccc3)cc2=O)CC1)c1ccccc1 [Example 94, (R)-1-((4-Hydroxy-1-(3-phenylbutanoyl)piperidin-4-yl)methyl)-4-phenyl-5-(piperazine-1-carbonyl)pyridin-2(1H)-one] | 5.30 to 6.30
3 | C[C@H](CC(=O)N1CCC(O)(Cn2cc(-c3cncnc3)c(-c3ccccc3)cc2=O)CC1)c1ccccc1 [Example 103, (R)-1-((4-Hydroxy-1-(3-phenylbutanoyl)piperidin-4-yl)methyl)-4-phenyl-5-(pyrimidin-5-yl)pyridin-2(1H)-one] | 4.30 to 5.30
4 | C[C@H](CC1CCCCC1)C(=O)N1CCC(O)(Cn2cnc(-c3ccccc3F)cc2=O)C2(CCCC2)C1 (stereo partly drawn) [Example 119, 3-((7-((R)-3-Cyclohexyl-2-methylpropanoyl)-10-hydroxy-7-azaspiro[4.5]decan-10-yl)methyl)-6-(2-fluorophenyl)pyrimidin-4(3H)-one] | > 6.30
5 | CN(C)C(=O)c1cn(CC2(O)CCN(C(=O)c3csc(C(F)(F)F)n3)CC23CCCC3)c(=O)cc1-c1ccccc1 (stereo not shown) [Example 246, 1-((10-Hydroxy-7-(2-(trifluoromethyl)thiazole-4-carbonyl)-7-azaspiro[4.5]decan-10-yl)methyl)-N,N-dimethyl-6-oxo-4-phenyl-1,6-dihydropyridine-3-carboxamide] | 4.30 to 5.30
6 | C[C@H](CC1CCCCC1)C(=O)N1CC[C@@](O)(Cn2cc(C(=O)N3CCNCC3)c(C3CC3)cc2=O)C(C)(C)C1 [Example 221, 1-(((S)-1-((R)-3-Cyclohexyl-2-methylpropanoyl)-4-hydroxy-3,3-dimethylpiperidin-4-yl)methyl)-4-cyclopropyl-5-(piperazine-1-carbonyl)pyridin-2(1H)-one] | 5.30 to 6.30
7 | COc1cc(=O)n(CC2(O)CCN(C(=O)[C@H](C)CC3CCCCC3)CC23CCCC3)cc1C(=O)N(C)C (stereo partly drawn) [Example 242, 1-((7-((R)-3-Cyclohexyl-2-methylpropanoyl)-10-hydroxy-7-azaspiro[4.5]decan-10-yl)methyl)-4-methoxy-N,N-dimethyl-6-oxo-1,6-dihydropyridine-3-carboxamide] | 5.30 to 6.30
8 | C[C@H](CC(=O)N1CCC(O)(Cn2cc(C(=O)NC3CCCCC3)c(-c3ccccc3)cc2=O)CC1)c1ccccc1 [Example 65, (R)—N-Cyclohexyl-1-((4-hydroxy-1-(3-phenylbutanoyl)piperidin-4-yl)methyl)-6-oxo-4-phenyl-1,6-dihydropyridine-3-carboxamide] | 4.30 to 5.30
9 | CC(C)C(CC1CCCCC1)C(=O)N1CCC(O)(Cn2cnc(-c3ccccc3F)cc2=O)C(C)(C)C1 (stereo not shown) [Example 25, 3-((1-(2-(Cyclohexylmethyl)-3-methylbutanoyl)-4-hydroxy-3,3-dimethylpiperidin-4-yl)methyl)-6-(2-fluorophenyl)pyrimidin-4(3H)-one] | 5.30 to 6.30
10 | CN(C)C(=O)c1cn(C[C@]2(O)CCN(C(=O)C(CC(F)(F)F)CC(F)(F)F)CC2(C)C)c(=O)cc1-c1ccccc1 [Example 207, (S)-1-((4-Hydroxy-3,3-dimethyl-1-(4,4,4-trifluoro-2-(2,2,2-trifluoroethyl)butanoyl)piperidin-4-yl)methyl)-N,N-dimethyl-6-oxo-4-phenyl-1,6-dihydropyridine-3-carboxamide] | 4.30 to 5.30
11 | C[C@@H]1CN(C(=O)c2cn(C[C@]3(O)CCN(C(=O)[C@H](C)CC4CCCCC4)CC3(C)C)c(=O)cc2-c2ccccc2)CCN1 [Example 213, 1-(((S)-1-((R)-3-Cyclohexyl-2-methylpropanoyl)-4-hydroxy-3,3-dimethylpiperidin-4-yl)methyl)-5-((R)-3-methylpiperazine-1-carbonyl)-4-phenylpyridin-2(1H)-one] | > 6.30
12 | C[C@H](CC1CCCCC1)C(=O)N1CCC(O)(Cn2cnc(-c3ccccc3CN)cc2=O)C(C)(C)C1 (stereo partly drawn) [Example 141, 6-(2-(Aminomethyl)phenyl)-3-((1-((R)-3-cyclohexyl-2-methylpropanoyl)-4-hydroxy-3,3-dimethylpiperidin-4-yl)methyl)pyrimidin-4(3H)-one] | > 6.30
13 | CC(CC(C)(C)C)C(=O)N1CCC(O)(Cn2cnc(-c3ccccc3F)cc2=O)C(C)(C)C1 (stereo not shown) [Example 142, 6-(2-Fluorophenyl)-3-((4-hydroxy-3,3-dimethyl-1-(2,4,4-trimethylpentanoyl)piperidin-4-yl)methyl)pyrimidin-4(3H)-one] | 3.60 to 4.30
14 | CN(C)C(=O)c1cn(CC2(O)CCN(C(=O)C3CC(C(F)(F)F)C3)CC23CCCC3)c(=O)cc1-c1ccccc1 (stereo not shown) [Example 229, 1-((10-Hydroxy-7-(3-(trifluoromethyl)cyclobutane-1-carbonyl)-7-azaspiro[4.5]decan-10-yl)methyl)-N,N-dimethyl-6-oxo-4-phenyl-1,6-dihydropyridine-3-carboxamide] | 4.30 to 5.30
15 | CC(CC(=O)N1CCC(O)(Cn2cc(C(=O)N(C)C)c(-c3ccccc3)cc2=O)C2(CCCC2)C1)C(F)(F)F (stereo not shown) [Example 171, 1-((10-Hydroxy-7-(4,4,4-trifluoro-3-methylbutanoyl)-7-azaspiro[4.5]decan-10-yl)methyl)-N,N-dimethyl-6-oxo-4-phenyl-1,6-dihydropyridine-3-carboxamide] | 3.60 to 4.30
16 | C[C@H](CC(F)(F)F)C(=O)N1CC[C@@](O)(Cn2cc(C(=O)N3CCNCC3)c(-c3ccccc3)cc2=O)C2(CCCC2)C1 [Example 217, 1-(((S)-10-Hydroxy-7-((R)-4,4,4-trifluoro-2-methylbutanoyl)-7-azaspiro[4.5]decan-10-yl)methyl)-4-phenyl-5-(piperazine-1-carbonyl)pyridin-2(1H)-one] | > 6.30
17 | C[C@H](CC1CCCCC1)C(=O)N1CCC(O)(Cn2cnc(-c3ccc(CO)cc3)cc2=O)C(C)(C)C1 (stereo partly drawn) [Example 139, 3-((1-((R)-3-Cyclohexyl-2-methylpropanoyl)-4-hydroxy-3,3-dimethylpiperidin-4-yl)methyl)-6-(4-(hydroxymethyl)phenyl)pyrimidin-4(3H)-one] | > 6.30
18 | O=C(CCc1ccc(F)cc1)N1CCC(O)(Cn2cnc(-c3ccccc3F)cc2=O)CC1 [Example 82, 6-(2-Fluorophenyl)-3-((1-(3-(4-fluorophenyl)propanoyl)-4-hydroxypiperidin-4-yl)methyl)pyrimidin-4(3H)-one] | 3.60 to 4.30
19 | C[C@H](CC1CCCCC1)C(=O)N1CC[C@@](O)(Cn2cc(C(=O)N3CCNCC3)c(C3CC3)cc2=O)C2(CCCC2)C1 [Example 233, 1-(((S)-7-((R)-3-Cyclohexyl-2-methylpropanoyl)-10-hydroxy-7-azaspiro[4.5]decan-10-yl)methyl)-4-cyclopropyl-5-(piperazine-1-carbonyl)pyridin-2(1H)-one] | > 6.30
20 | CC(C)C(=O)N1CCC(O)(Cn2cc(C(=O)N(C)C)c(-c3ccccc3)cc2=O)C2(CCCC2)C1 (stereo not shown) [Example 147, 1-((10-Hydroxy-7-isobutyryl-7-azaspiro[4.5]decan-10-yl)methyl)-N,N-dimethyl-6-oxo-4-phenyl-1,6-dihydropyridine-3-carboxamide] | 3.60 to 4.30
21 | CN(C)C(=O)c1cn(C[C@]2(O)CCN(C(=O)[C@H](CCO)CC3CCCCC3)CC2(C)C)c(=O)cc1-c1ccccc1 [Example 164, 1-(((S)-1-((S)-2-(Cyclohexylmethyl)-4-hydroxybutanoyl)-4-hydroxy-3,3-dimethylpiperidin-4-yl)methyl)-N,N-dimethyl-6-oxo-4-phenyl-1,6-dihydropyridine-3-carboxamide] | > 6.30
22 | C[C@H](CC(=O)N1CCC(O)(Cn2cc(C(=O)NCCO)c(-c3ccccc3)cc2=O)CC1)c1ccccc1 [Example 115, (R)-1-((4-Hydroxy-1-(3-phenylbutanoyl)piperidin-4-yl)methyl)-N-(2-hydroxyethyl)-6-oxo-4-phenyl-1,6-dihydropyridine-3-carboxamide] | 4.30 to 5.30
23 | C[C@H](CC(=O)N1CCC(O)(Cn2cnc(-c3ccsc3)cc2=O)CC1)c1ccccc1 [Example 22, (R)-3-((4-Hydroxy-1-(3-phenylbutanoyl)piperidin-4-yl)methyl)-6-(thiophen-3-yl)pyrimidin-4(3H)-one] | 4.30 to 5.30
24 | C[C@H](CC1CCC1)C(=O)N1CC[C@@](O)(Cn2cc(C(=O)N3CCNCC3)c(-c3ccccc3F)cc2=O)C2(CCCC2)C1 [Example 224, 1-(((S)-7-((R)-3-Cyclobutyl-2-methylpropanoyl)-10-hydroxy-7-azaspiro[4.5]decan-10-yl)methyl)-4-(2-fluorophenyl)-5-(piperazine-1-carbonyl)pyridin-2(1H)-one] | > 6.30
25 | C[C@H](CC1CCCCC1)C(=O)N1CCC(O)(Cn2cnc(-c3cccc(CN)c3)cc2=O)C(C)(C)C1 (stereo partly drawn) [Example 159, 6-(3-(Aminomethyl)phenyl)-3-((1-((R)-3-cyclohexyl-2-methylpropanoyl)-4-hydroxy-3,3-dimethylpiperidin-4-yl)methyl)pyrimidin-4(3H)-one] | 5.30 to 6.30
26 | CN(C)C(=O)c1cn(CC2(O)CCN(C(=O)C3CC34CC4)CC23CCCC3)c(=O)cc1-c1ccccc1 (stereo not shown) [Example 195, 1-((10-Hydroxy-7-(spiro[2.2]pentane-1-carbonyl)-7-azaspiro[4.5]decan-10-yl)methyl)-N,N-dimethyl-6-oxo-4-phenyl-1,6-dihydropyridine-3-carboxamide] | 4.30 to 5.30
27 | C[C@H](CC(=O)N1CCC(O)(Cn2cnc(C3=CCCCC3)cc2=O)CC1)c1ccccc1 [Example 28, (R)-6-(Cyclohex-1-en-1-yl)-3-((4-hydroxy-1-(3-phenylbutanoyl)piperidin-4-yl)methyl)pyrimidin-4(3H)-one] | 3.60 to 4.30
28 | C[C@H](CC(=O)N1CCC(O)(Cn2cc(C(=O)N3CCOCC3)c(-c3ccccc3)cc2=O)CC1)c1ccccc1 [Example 77, (R)-1-((4-Hydroxy-1-(3-phenylbutanoyl)piperidin-4-yl)methyl)-5-(morpholine-4-carbonyl)-4-phenylpyridin-2(1H)-one] | 5.30 to 6.30
